system: HEK293T-mtkeima cells; test: Functional test of mitophagy inducer, direct treatment without CCCP; format: cell-based, human; conditions: HEK293T-mtkeima cells; number of cells in which mitophagy occurs/number of total cells
Experimental: Seeding human embryonic kidney transformed cells HEK293T-mtkeima cells in a 96-well black ELISA Plate at 1.5*10^5 cells/ml, 100 μl per well; after 25 hours, adding UMI-77 and compounds I-1˜I-26 respectively, and setting up 3 replicates; under 37° C., 5% CO2 incubation conditions, taking picture with biotekcytation5 every few hours for a total of 20 hours. Taking the bright field as the focusing channel, and taking 9pictures per well, and processing the pictures by using the instrument software and converting into the degree of mitophagy strength, exemplifying by UMI-77 and Compound I-4, the results are shown in FIG. 1.
Note: The HEK293T-mtkeima cells used in the experiments are HEK293T-mtkeima cells obtained according to the method mentioned in the literature [Cen, X. et al. Nat Commun 11, 5731 (2020).], by using lentiviral packaging technology, and stably expressing mtkeima protein in HEK293T cells. The CCCP used in the experiments is purchased from TargetMol (Item No. T7081).

SMILES	Ability to induce mitophagy
CN(c1cc(SCC(=O)O)c(O)c2ccccc12)S(=O)(=O)c1ccc(Br)cc1 [Compound I-1]	+++ (strong ability to induce mitophagy (number of cells in which mitophagy occurs/number of total cells >0.30))
O=C(O)CSc1cc(N(CCO)S(=O)(=O)c2ccc(Br)cc2)c2ccccc2c1O [Compound I-2]	++ (moderate ability to induce mitophagy (number of cells in which mitophagy occurs/number of total cells is in the range of 0.2~0.3))
O=C(O)CSc1cc(N(c2ccccc2)S(=O)(=O)c2ccc(Br)cc2)c2ccccc2c1O [Compound I-3]	++ (moderate ability to induce mitophagy (number of cells in which mitophagy occurs/number of total cells is in the range of 0.2~0.3))
CN=S(=O)(Nc1cc(SCC(=O)O)c(O)c2ccccc12)c1ccc(Br)cc1 (centres unmarked) [Compound I-4]	+++ (strong ability to induce mitophagy (number of cells in which mitophagy occurs/number of total cells >0.30))
O=C(O)CSc1cc(NS(=O)(=NC2CC2)c2ccc(Br)cc2)c2ccccc2c1O (centres unmarked) [Compound I-5]	+++ (strong ability to induce mitophagy (number of cells in which mitophagy occurs/number of total cells >0.30))
O=C(O)CSc1cc(NS(=O)(=NC2COC2)c2ccc(Br)cc2)c2ccccc2c1O (centres unmarked) [Compound I-6]	+++ (strong ability to induce mitophagy (number of cells in which mitophagy occurs/number of total cells >0.30))
O=C(O)CSc1cc(NS(=O)(=Nc2ccccc2)c2ccc(Br)cc2)c2ccccc2c1O (centres unmarked) [Compound I-8]	++ (moderate ability to induce mitophagy (number of cells in which mitophagy occurs/number of total cells is in the range of 0.2~0.3))
CN=S(=O)(c1ccc(Br)cc1)N(C)c1cc(SCC(=O)O)c(O)c2ccccc12 (centres unmarked) [Compound I-9]	++ (moderate ability to induce mitophagy (number of cells in which mitophagy occurs/number of total cells is in the range of 0.2~0.3))
O=C(O)CSc1cc(N2CCN=S2(=O)c2ccc(Br)cc2)c2ccccc2c1O (centres unmarked) [Compound I-10]	++ (moderate ability to induce mitophagy (number of cells in which mitophagy occurs/number of total cells is in the range of 0.2~0.3))
O=C(O)CSc1cc(N2CCCN=S2(=O)c2ccc(Br)cc2)c2ccccc2c1O (centres unmarked) [Compound I-11]	++ (moderate ability to induce mitophagy (number of cells in which mitophagy occurs/number of total cells is in the range of 0.2~0.3))
CN=S(=O)(Nc1cc(SCc2nn[nH]n2)c(O)c2ccccc12)c1ccc(Br)cc1 (centres unmarked) [Compound I-12]	+++ (strong ability to induce mitophagy (number of cells in which mitophagy occurs/number of total cells >0.30))
CN=S(=O)(Nc1cc(SCc2nnc[nH]2)c(O)c2ccccc12)c1ccc(Br)cc1 (centres unmarked) [Compound I-13]	++ (moderate ability to induce mitophagy (number of cells in which mitophagy occurs/number of total cells is in the range of 0.2~0.3))
CN=S(=O)(Nc1cc(SCC(=O)O)c(OC(C)=O)c2ccccc12)c1ccc(Br)cc1 (centres unmarked) [Compound I-14]	++ (moderate ability to induce mitophagy (number of cells in which mitophagy occurs/number of total cells is in the range of 0.2~0.3))
CN=S(=O)(Nc1cc(SCC(=O)O)c(O)c2ccccc12)c1ccc(Oc2ccccc2)cc1 (centres unmarked) [Compound I-17]	+++ (strong ability to induce mitophagy (number of cells in which mitophagy occurs/number of total cells >0.30))
CN=S(=O)(Nc1cc(SCC(=O)O)c(O)c2ccccc12)c1ccc(-c2ccccc2)cc1 (centres unmarked) [Compound I-18]	++ (moderate ability to induce mitophagy (number of cells in which mitophagy occurs/number of total cells is in the range of 0.2~0.3))
CN=S(=O)(Nc1cc(SCC(=O)O)c(O)c2ccccc12)c1ccc(C(F)(F)F)cc1 (centres unmarked) [Compound I-19]	+++ (strong ability to induce mitophagy (number of cells in which mitophagy occurs/number of total cells >0.30))
CN=S(=O)(Nc1cc(SCC(=O)O)c(O)c2ccccc12)c1ccc2ccccc2c1 (centres unmarked) [Compound I-20]	++ (moderate ability to induce mitophagy (number of cells in which mitophagy occurs/number of total cells is in the range of 0.2~0.3))
CN=S(=O)(Nc1cc(SCC(=O)O)c(O)c2ccccc12)c1cccs1 (centres unmarked) [Compound I-21]	+++ (strong ability to induce mitophagy (number of cells in which mitophagy occurs/number of total cells >0.30))
CN=S(=O)(Nc1cc(SCC(=O)O)c(O)c2ccccc12)c1cccc(-c2ccccc2)c1 (centres unmarked) [Compound I-22]	++ (moderate ability to induce mitophagy (number of cells in which mitophagy occurs/number of total cells is in the range of 0.2~0.3))
O=C(O)CSc1cc(NS(=O)(=O)c2ccc(Br)cc2)c2ccccc2c1O [UMI-77, reference compound]	+ (weak ability to induce mitophagy (number of cells in which mitophagy occurs/number of total cells is in the range of 0.1~0.2))

same assay, conditions: cells not treated with CCCP

SMILES	Strength of mitophagy induction compared with UMI-77 (FIG. 1)
CN=S(=O)(Nc1cc(SCC(=O)O)c(O)c2ccccc12)c1ccc(Br)cc1 (centres unmarked) [Compound I-4]	induces mitophagy more strongly than UMI-77

system: HEK293T-mtkeima cells; test: Selective induction of mitophagy after CCCP-induced mitochondrial damage; format: cell-based, human; conditions: 5 uM or 10 uM CCCP pre-treatment compared with no CCCP treatment

SMILES	Selective induction of autophagy in damaged mitochondria (FIG. 2)
CN(c1cc(SCC(=O)O)c(O)c2ccccc12)S(=O)(=O)c1ccc(Br)cc1 [Compound I-1]	more likely to induce autophagy in damaged mitochondria
O=C(O)CSc1cc(NS(=O)(=O)c2ccc(Br)cc2)c2ccccc2c1O [UMI-77, reference compound]	unable to selectively induce autophagy in damaged mitochondria

system: not listed separately; test: In vitro liver microsome stability test (mice); format: in vitro ADME; conditions: mice liver microsomes, NADPH, 37° C., 0-45 min
Experimental: (§1) Selecting Ketanserin as the reference compound. The specific method is as follows:
(§2) Preparing 0.1M K3PO4 (pH 7.4) buffer and 3×NADPH stock solution (6 mM, 5 mg/mL), and preheating in a 37° C. water bath; preparing of test compound and control compound spiking solution: adding 5 μL compound stock solution ([…]) into 95 μL acetonitrile; preparing of 1.5 μM spiking solution in microsomes (0.75 mg/mL): adding 1.5 μL spiking solution and 18.75 μL liver microsomes solution (20 mg/mL) into 479.75 μL K3PO4 buffer; taking 30 μL spiking solution in microsomes to the multi-well plate and incubating at 37° C. for 5 minutes; adding 15 μL NADPH stock solution into each well to start the reaction, and timing; respectively at 0 min, 5 min, 15 min, 30 min and 45 min, adding 150 μL of IS-containing acetonitrile solution to terminate the reaction; shaking for 10 mins and then centrifuging at 6000 rpm for 15 mins; taking 80 μL of the supernatant from each well for LC/MS detection and calculating T1/2.
(§3) Note: The mice and human liver microsomes used in the experiments are purchased from Xenotech.

Liver microsome stability	SMILES
relatively superior stability	CN(c1cc(SCC(=O)O)c(O)c2ccccc12)S(=O)(=O)c1ccc(Br)cc1 [Compound I-1]
relatively superior stability	CN=S(=O)(Nc1cc(SCC(=O)O)c(O)c2ccccc12)c1ccc(Br)cc1 (centres unmarked) [Compound I-4]
unstable	O=C(O)CSc1cc(NS(=O)(=O)c2ccc(Br)cc2)c2ccccc2c1O [UMI-77, reference compound]

system: not listed separately; test: In vitro liver microsome stability test (human); format: in vitro ADME; conditions: human liver microsomes, NADPH, 37° C., 0-45 min
Experimental: as §1, §2, §3

Liver microsome stability	SMILES
relatively superior stability	CN(c1cc(SCC(=O)O)c(O)c2ccccc12)S(=O)(=O)c1ccc(Br)cc1 [Compound I-1]
relatively superior stability	CN=S(=O)(Nc1cc(SCC(=O)O)c(O)c2ccccc12)c1ccc(Br)cc1 (centres unmarked) [Compound I-4]
unstable	O=C(O)CSc1cc(NS(=O)(=O)c2ccc(Br)cc2)c2ccccc2c1O [UMI-77, reference compound]

From patent US20240400500A1, “SMALL-MOLECULE COMPOUND HAVING NAPHTHALENETHIOL ETHER STRUCTURE, AND USE THEREOF” (HANGZHOU PHECDAMED CO., LTD., priority 2021, published 2024)
